# Test results published in US20240425499A1, “TYRO3 INHIBITORS” (HALIA THERAPEUTICS, INC., priority 2021, published 2024).
# Target: recombinant human TYRO3 (Homo sapiens (Human), UniProt Q06418)
# Test: TYRO3 enzymatic assay (radiometric [32P]-ATP, Poly(Glu,Tyr) substrate)
# Format: biochemical
# Details: recombinant human TYRO3, [32P]-ATP
# Description: Poly(Glu, Tyr) sodium salt (Glu:Tyr (4:1), quality level 200, molecular weight 5,000-20,000, obtained from Sigma Aldrich, catalogue #P7244, assay concentration 0.20 mg/mL) and recombinant human TYRO3 (obtained from ThermoFisher Scientific, catalogue #PV3828, assay concentration 2 nM) were mixed in assay buffer (20 mM Hepes pH 7.5, 10 mM MgCl2, 1 mM EGTA, 0.02% Brij35, 0.02 mg/ml BSA, 0.1 mM Na3VO4, 2 mM DTT, 1% DMSO, with added MnCl2 at a final concentration of 2 mM). Compounds of interest (in DMSO, serial 3-fold dilution from 10 μM to 0.5 nM) or control (1% DMSO) were dispensed into the kinase reaction mixture by Acoustic technology (Echo550; nanoliter range). After incubation at room temperature for 20 minutes, the kinase reaction was initiated by addition of [^32P]-ATP (Specific activity 10 μCi/μl) and the mixture was incubated at room temperature for 2 hours. The reaction was then stopped by spotting the reaction mixture on strips of phosphocellulose P81 paper. Following washing, the radioactivity of the P81 paper was measured and kinase activity data were expressed as the percent remaining kinase activity in test samples compared to vehicle (dimethyl sulfoxide) reactions. IC50 values and curve fits were obtained using Prism (GraphPad Software).
# Chain of recombinant human TYRO3 (Q06418 41-890): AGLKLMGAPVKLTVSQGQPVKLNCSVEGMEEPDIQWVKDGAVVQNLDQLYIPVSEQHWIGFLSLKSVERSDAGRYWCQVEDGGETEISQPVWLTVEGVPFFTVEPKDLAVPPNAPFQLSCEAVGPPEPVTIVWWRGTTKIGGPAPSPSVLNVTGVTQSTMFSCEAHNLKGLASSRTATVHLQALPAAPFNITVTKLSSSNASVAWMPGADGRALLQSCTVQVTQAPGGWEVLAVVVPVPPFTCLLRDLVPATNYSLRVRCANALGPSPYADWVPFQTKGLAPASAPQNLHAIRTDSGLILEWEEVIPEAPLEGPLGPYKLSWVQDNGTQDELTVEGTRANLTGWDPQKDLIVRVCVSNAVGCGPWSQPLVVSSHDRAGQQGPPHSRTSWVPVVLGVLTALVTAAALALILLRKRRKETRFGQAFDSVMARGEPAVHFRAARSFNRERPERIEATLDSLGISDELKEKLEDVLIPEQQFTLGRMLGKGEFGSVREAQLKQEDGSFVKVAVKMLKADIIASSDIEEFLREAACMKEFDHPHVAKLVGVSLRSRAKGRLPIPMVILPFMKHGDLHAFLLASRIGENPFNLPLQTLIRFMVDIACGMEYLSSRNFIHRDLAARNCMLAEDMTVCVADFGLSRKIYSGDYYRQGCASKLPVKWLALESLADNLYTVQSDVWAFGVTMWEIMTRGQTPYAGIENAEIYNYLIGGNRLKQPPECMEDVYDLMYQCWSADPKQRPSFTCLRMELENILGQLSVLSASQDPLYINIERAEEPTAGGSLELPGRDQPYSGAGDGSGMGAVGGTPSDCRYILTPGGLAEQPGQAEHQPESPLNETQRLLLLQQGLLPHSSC
row,IC50 [nM],SMILES
1,51 to 150,"COc1ccc(-c2c(C)[nH]c3ncc(-c4ccc(CN5CCCC(O)C5)cc4)cc23)cn1 (stereo not shown) [compound 62, 1-(4-(3-(6-methoxypyridin-3-yl)-2-methyl-1H-pyrrolo[2,3-b]pyridin-5-yl)benzyl)piperidin-3-ol]"
2,51 to 150,"OC1CCCN(Cc2ccc(-c3cnc4[nH]cc(-c5ccc(Cl)cc5)c4c3)cc2)C1 (stereo not shown) [compound 7, 1-(4-(3-(4-chlorophenyl)-1H-pyrrolo[2,3-b]pyridin-5-yl)benzyl)piperidin-3-ol]"
3,51 to 150,"CN1CCc2cc(-c3c[nH]c4ncc(-c5ccc(CN6CCCC(CO)C6)cc5)cc34)ccc2C1 (stereo not shown) [compound 82, (1-(4-(3-(2-methyl-1,2,3,4-tetrahydroisoquinolin-6-yl)-1H-pyrrolo[2,3-b]pyridin-5-yl)benzyl)piperidin-3-yl)methanol]"
4,51 to 150,"COCC1CCCN(Cc2ccc(-c3cnc4[nH]cc(-c5ccc(OC)nc5)c4c3)cc2)C1 (stereo not shown) [compound 70, 5-(4-((3-(methoxymethyl)piperidin-1-yl)methyl)phenyl)-3-(6-methoxypyridin-3-yl)-1H-pyrrolo[2,3-b]pyridine]"
5,51 to 150,"COc1ccc(-c2c[nH]c3ncc(-c4ccc(CN5CCC(O)C5)cc4)cc23)cn1 (stereo not shown) [compound 29, 1-(4-(3-(6-methoxypyridin-3-yl)-1H-pyrrolo[2,3-b]pyridin-5-yl)benzyl)pyrrolidin-3-ol]"
6,51 to 150,"Cc1ccc(-c2c[nH]c3ncc(-c4ccc(CN5CCCC(O)C5)cc4)cc23)cc1 (stereo not shown) [compound 1, 1-(4-(3-(p-tolyl)-1H-pyrrolo[2,3-b]pyridin-5-yl)benzyl)piperidin-3-ol]"
7,151 to 500,"CC1(O)CCN(c2ccc(-c3cnc4[nH]cc(-c5ccc6[nH]ccc6c5)c4c3)cc2)CC1 [compound 77, 1-(4-(3-(1H-indol-5-yl)-1H-pyrrolo[2,3-b]pyridin-5-yl)phenyl)-4-methylpiperidin-4-ol]"
8,51 to 150,"Fc1cccc(-c2c[nH]c3ncc(-c4ccc(CN5C[C@@H]6C[C@H]5CO6)cc4)cc23)c1 [compound 6, (1S,4S)-5-(4-(3-(3-fluorophenyl)-1H-pyrrolo[2,3-b]pyridin-5-yl)benzyl)-2-oxa-5-azabicyclo[2.2.1]heptane]"
9,151 to 500,"OCc1[nH]c2ncc(-c3ccc(CN4CCCC(O)C4)cc3)cc2c1-c1cccc(F)c1 (single isomer, unassigned; enantiomer 1) [compound 88, 1-(4-(3-(3-fluorophenyl)-2-(hydroxymethyl)-1H-pyrrolo[2,3-b]pyridin-5-yl)benzyl)piperidin-3-ol Enantiomer 1]"
10,151 to 500,"COc1ccc(-c2c[nH]c3ncc(-c4ccc(CN5CCCC(OC(C)=O)C5)cc4)cc23)cn1 (stereo not shown) [compound 69, 1-(4-(3-(6-methoxypyridin-3-yl)-1H-pyrrolo[2,3-b]pyridin-5-yl)benzyl)piperidin-3-yl acetate]"
11,51 to 150,"OC1CCCN(Cc2ccc(-c3cnc4[nH]cc(-c5ccc(C(F)(F)F)nc5)c4c3)cc2)C1 (stereo not shown) [compound 24, 1-(4-(3-(6-(trifluoromethyl)pyridin-3-yl)-1H-pyrrolo[2,3-b]pyridin-5-yl)benzyl)piperidin-3-ol]"
12,151 to 500,"COc1ccc(-c2c[nH]c3ncc(-c4ccc(CN5CCC6(CC5)CN(C)C6)cc4)cc23)cn1 [compound 42, 7-(4-(3-(6-methoxypyridin-3-yl)-1H-pyrrolo[2,3-b]pyridin-5-yl)benzyl)-2-methyl-2,7-diazaspiro[3.5]nonane]"
13,151 to 500,"COc1ccc(-c2c[nH]c3ncc(-c4ccc(CN5CCC(O)CC5)cc4)cc23)cn1 [compound 28, 1-(4-(3-(6-methoxypyridin-3-yl)-1H-pyrrolo[2,3-b]pyridin-5-yl)benzyl)piperidin-4-ol]"
14,51 to 150,"OC1CCCN(Cc2ccc(-c3cnc4[nH]cc(-c5cncc(F)c5)c4c3)cc2)C1 (stereo not shown) [compound 22, 1-(4-(3-(5-fluoropyridin-3-yl)-1H-pyrrolo[2,3-b]pyridin-5-yl)benzyl)piperidin-3-ol]"
15,51 to 150,"OCc1ccc(-c2c[nH]c3ncc(-c4ccc(CN5CCCC(O)C5)cc4)cc23)cn1 (stereo not shown) [compound 43, 1-(4-(3-(6-(hydroxymethyl)pyridin-3-yl)-1H-pyrrolo[2,3-b]pyridin-5-yl)benzyl)piperidin-3-ol]"
16,51 to 150,"CC1(O)CCCN(Cc2ccc(-c3cnc4[nH]cc(-c5cccc(F)c5)c4c3)cc2)C1 (stereo not shown) [compound 5, 1-(4-(3-(3-fluorophenyl)-1H-pyrrolo[2,3-b]pyridin-5-yl)benzyl)-3-methylpiperidin-3-ol]"
17,51 to 150,"OC1CCCN(Cc2ccc(-c3cnc4[nH]cc(-c5cccc(C(F)(F)F)c5)c4c3)cc2)C1 (stereo not shown) [compound 11, 1-(4-(3-(3-(trifluoromethyl)phenyl)-1H-pyrrolo[2,3-b]pyridin-5-yl)benzyl)piperidin-3-ol]"

row,IC50 [nM],SMILES
1,51 to 150,"COc1ccc(-c2c[nH]c3ncc(-c4ccc(CN5CCCC(C)(O)C5)cc4)cc23)cn1 (stereo not shown) [compound 30, 1-(4-(3-(6-methoxypyridin-3-yl)-1H-pyrrolo[2,3-b]pyridin-5-yl)benzyl)-3-methylpiperidin-3-ol]"
2,51 to 150,"COc1ccc(-c2c[nH]c3ncc(-c4ccc(CN5CCC(OC)CC5)cc4)cc23)cn1 [compound 34, 5-(4-((4-methoxypiperidin-1-yl)methyl)phenyl)-3-(6-methoxypyridin-3-yl)-1H-pyrrolo[2,3-b]pyridine]"
3,151 to 500,"COc1ccc(-c2c[nH]c3ncc(-c4ccc(CN5CCCC(F)C5)cc4)cc23)cn1 (stereo not shown) [compound 40, 5-(4-((3-fluoropiperidin-1-yl)methyl)phenyl)-3-(6-methoxypyridin-3-yl)-1H-pyrrolo[2,3-b]pyridine]"
4,151 to 500,"CCOC1CN(Cc2ccc(-c3cnc4[nH]cc(-c5ccc(OC)nc5)c4c3)cc2)C1 [compound 36, 5-(4-((3-ethoxyazetidin-1-yl)methyl)phenyl)-3-(6-methoxypyridin-3-yl)-1H-pyrrolo[2,3-b]pyridine]"
5,< 51,"COc1ccc(-c2c[nH]c3ncc(-c4ccc(CN5CCCC(O)C5)cc4)cc23)cn1 (single isomer, unassigned; enantiomer 1) [compound 26, 1-(4-(3-(6-methoxypyridin-3-yl)-1H-pyrrolo[2,3-b]pyridin-5-yl)benzyl)piperidin-3-ol Enantiomer 1]"
6,51 to 150,"COc1ccc(-c2c[nH]c3ncc(-c4ccc(CN5CCCC(CO)C5)cc4)cc23)cn1 (stereo not shown) [compound 32, (1-(4-(3-(6-methoxypyridin-3-yl)-1H-pyrrolo[2,3-b]pyridin-5-yl)benzyl)piperidin-3-yl)methanol]"
7,51 to 150,"OC1CCCN(Cc2ccc(-c3cnc4[nH]cc(-c5ccc(F)cc5)c4c3)cc2)C1 (stereo not shown) [compound 3, 1-(4-(3-(4-fluorophenyl)-1H-pyrrolo[2,3-b]pyridin-5-yl)benzyl)piperidin-3-ol]"
8,51 to 150,"OC1CCCN(Cc2ccc(-c3cnc4[nH]cc(-c5ccc(F)nc5)c4c3)cc2)C1 (stereo not shown) [compound 21, 1-(4-(3-(6-fluoropyridin-3-yl)-1H-pyrrolo[2,3-b]pyridin-5-yl)benzyl)piperidin-3-ol]"
9,151 to 500,"OC1CCCN(Cc2ccc(-c3cnc4[nH]c(Cl)c(-c5cccc(C(F)F)c5)c4c3)cc2)C1 (stereo not shown) [compound 55, 1-(4-(2-chloro-3-(3-(difluoromethyl)phenyl)-1H-pyrrolo[2,3-b]pyridin-5-yl)benzyl)piperidin-3-ol]"
10,51 to 150,"COc1ccc(-c2c[nH]c3ncc(-c4ccc(CN5CCCC(O)C5)cc4)cc23)cn1 (single isomer, unassigned; enantiomer 2) [compound 27, 1-(4-(3-(6-methoxypyridin-3-yl)-1H-pyrrolo[2,3-b]pyridin-5-yl)benzyl)piperidin-3-ol Enantiomer 2]"
11,51 to 150,"OC1CCCN(Cc2ccc(-c3cnc4[nH]c(C(F)F)c(-c5cccc(F)c5)c4c3)cc2)C1 (stereo not shown) [compound 68, 1-(4-(2-(difluoromethyl)-3-(3-fluorophenyl)-1H-pyrrolo[2,3-b]pyridin-5-yl)benzyl)piperidin-3-ol]"
12,151 to 500,"COc1ccc(-c2c[nH]c3ncc(-c4ccc(CN5CCC(N(C)C)CC5)cc4)cc23)cn1 [compound 74, 1-(4-(3-(6-methoxypyridin-3-yl)-1H-pyrrolo[2,3-b]pyridin-5-yl)benzyl)-N,N-dimethylpiperidin-4-amine]"
13,51 to 150,"COCc1[nH]c2ncc(-c3ccc(CN4CCCC(O)C4)cc3)cc2c1-c1ccc(F)nc1 (stereo not shown) [compound 64, 1-(4-(3-(6-fluoropyridin-3-yl)-2-(methoxymethyl)-1H-pyrrolo[2,3-b]pyridin-5-yl)benzyl)piperidin-3-ol]"
14,151 to 500,CNC1CCN(Cc2ccc(-c3cnc4[nH]cc(-c5ccc(OC)nc5)c4c3)cc2)CC1 [compound 73]
15,51 to 150,"OC1CCCN(Cc2ccc(-c3cnc4[nH]c(Cl)c(-c5cccc(F)c5)c4c3)cc2)C1 (stereo not shown) [compound 54, 1-(4-(2-chloro-3-(3-fluorophenyl)-1H-pyrrolo[2,3-b]pyridin-5-yl)benzyl)piperidin-3-ol]"
16,51 to 150,"COc1ccc(-c2c[nH]c3ncc(-c4ccc(CN5CCC(C)(O)CC5)cc4)cc23)cn1 [compound 71, 1-(4-(3-(6-methoxypyridin-3-yl)-1H-pyrrolo[2,3-b]pyridin-5-yl)benzyl)-4-methylpiperidin-4-ol]"

row,SMILES,IC50 [nM]
1,"COc1ccc(-c2c[nH]c3ncc(-c4ccc(CN5CCCC(OC)C5)cc4)cc23)cn1 (single isomer, unassigned; enantiomer 1) [compound 38, 5-(4-((3-methoxypiperidin-1-yl)methyl)phenyl)-3-(6-methoxypyridin-3-yl)-1H-pyrrolo[2,3-b]pyridine Enantiomer 1]",151 to 500
